Test results: ChEMBL document CHEMBL1136755, “Mapping property distributions of molecular surfaces: algorithm and evaluation of a novel 3D quantitative structure-activity relationship technique” (J Med Chem, 2003)

How the values were obtained:
[1] = biological target: T1, Corticosteroid-binding globulin (Homo sapiens) (UniProt P08185)
T1 sequence (whole entry): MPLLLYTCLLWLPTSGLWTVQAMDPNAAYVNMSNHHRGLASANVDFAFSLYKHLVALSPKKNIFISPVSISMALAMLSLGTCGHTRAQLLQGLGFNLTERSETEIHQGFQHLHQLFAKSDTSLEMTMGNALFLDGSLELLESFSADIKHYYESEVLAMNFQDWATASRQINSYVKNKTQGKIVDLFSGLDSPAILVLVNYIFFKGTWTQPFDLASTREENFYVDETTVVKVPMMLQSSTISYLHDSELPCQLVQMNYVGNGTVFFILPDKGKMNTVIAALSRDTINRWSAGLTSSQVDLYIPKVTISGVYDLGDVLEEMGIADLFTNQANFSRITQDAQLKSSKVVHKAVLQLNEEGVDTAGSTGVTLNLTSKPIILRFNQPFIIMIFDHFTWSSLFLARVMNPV
Description: Binding affinity towards corticosteroid-binding globulin (CBG)

Oryctolagus cuniculus = assay: Eye irritation potential accessed using Draize in vivo rabbit eye irritation test; type: functional
[2] = biological target: T2, Muscarinic acetylcholine receptor M2 (Sus scrofa, UniProt P06199); assay: Ability to dissociate radioligand [3H]NMS from muscarinic acetylcholine receptor M2 of porcine heart
T2 sequence (P06199 whole entry): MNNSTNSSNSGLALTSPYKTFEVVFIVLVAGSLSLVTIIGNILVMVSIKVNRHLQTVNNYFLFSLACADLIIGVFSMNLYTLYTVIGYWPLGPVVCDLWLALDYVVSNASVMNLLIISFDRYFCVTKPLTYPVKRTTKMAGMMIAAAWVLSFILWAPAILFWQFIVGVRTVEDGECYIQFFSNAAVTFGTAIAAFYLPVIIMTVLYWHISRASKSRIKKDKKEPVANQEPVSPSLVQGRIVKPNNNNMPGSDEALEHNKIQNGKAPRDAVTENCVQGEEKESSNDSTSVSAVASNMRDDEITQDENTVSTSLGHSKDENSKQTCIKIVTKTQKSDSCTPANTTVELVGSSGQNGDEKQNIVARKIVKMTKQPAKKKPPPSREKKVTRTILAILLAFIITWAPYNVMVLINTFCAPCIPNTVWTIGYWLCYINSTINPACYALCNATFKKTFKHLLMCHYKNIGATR

SMILES: CC(=O)[C@@]1(O)CC[C@H]2[C@@H]3CCC4=CC(=O)CC[C@]4(C)[C@H]3CC[C@@]21C
- Log K [1]: 7.74

SMILES: CC(=O)CC(C)C [METHYL ISOBUTYL KETONE]
- MES (Oryctolagus cuniculus): 0.59

SMILES: CC(C)=O [ACETONE]
- MES (Oryctolagus cuniculus): 4.83

SMILES: CCOC(=O)C(C)C(C)=O (stereo unspecified)
- MES (Oryctolagus cuniculus): 2.55

SMILES: CC(C)O [ISOPROPYL ALCOHOL]
- MES (Oryctolagus cuniculus): 2.34

SMILES: COC(=O)C(C)(C)C
- MES (Oryctolagus cuniculus): 0.36

SMILES: CCCCOCCO [BUTOXYETHANOL]
- MES (Oryctolagus cuniculus): 8.99

SMILES: C[C@]12C[C@H](O)[C@H]3[C@@H](CCC4=CC(=O)CC[C@@]43C)[C@@H]1CC[C@@H]2C(=O)CO
- Log K [1]: 7.88

SMILES: C[N+](C)(CCCCCCC[N+](C)(C)CCCN1C(=O)[C@H]2CCCC[C@H]2C1=O)CCCN1C(=O)[C@H]2CCCC[C@H]2C1=O
- EC50 [2]: 4.5 µM

SMILES: O=C1c2ccccc2C(=O)N1CCCCBr
- MES (Oryctolagus cuniculus): 0.19

SMILES: CCCCCC(C)=O
- MES (Oryctolagus cuniculus): 2.26

SMILES: O=[N+]([O-])c1ccc(F)cc1F
- MES (Oryctolagus cuniculus): 0.4

SMILES: C[C@]12CC[C@@H]3c4ccc(O)cc4CC[C@H]3[C@@H]1C[C@@H](O)[C@@H]2O
- Log K [1]: 5

SMILES: C=Cc1ccccc1 [STYRENE]
- MES (Oryctolagus cuniculus): 0.77

SMILES: CCCCCCCCCCCC [DODECANE]
- MES (Oryctolagus cuniculus): 0.45

SMILES: Cc1ccc2c(c1)C(=O)N(CCCN(CCCCCCN(CCCN1C(=O)c3ccc(C)cc3C1=O)C1CCCCC1)C1CCCCC1)C2=O
- EC50 [2]: 0.06 µM

SMILES: C[C@]12CCC(=O)C=C1CC[C@@H]1[C@@H]2CC[C@@]2(C)[C@H]1CC[C@]2(O)C(=O)CO
- Log K [1]: 7.88

SMILES: CCCCOC(C)=O [ACETIC ACID BUTYL ESTER]
- MES (Oryctolagus cuniculus): 0.99

SMILES: C/C1=C/C=C\C(C)CCC1 (stereo unspecified)
- MES (Oryctolagus cuniculus): 0.44

SMILES: CCCCC(CC)CO (stereo unspecified)
- MES (Oryctolagus cuniculus): 7.82

SMILES: C[C@]12C[C@@H](O)[C@H]3[C@@H](CCC4=CC(=O)CC[C@@]43C)[C@@H]1CC[C@@H]2C(=O)CO
- Log K [1]: 7.2

SMILES: CCOC(C)=O [ETHYL ACETATE]
- MES (Oryctolagus cuniculus): 1.47

SMILES: CC(=O)[C@@]1(O)[C@H](O)C[C@H]2[C@@H]3CCC4=CC(=O)CC[C@]4(C)[C@H]3CC[C@@]21C
- Log K [1]: 6.25

SMILES: COc1ccc(CCN(C)CCCC(C#N)(c2ccc(OC)c(OC)c2)C(C)C)cc1OC (stereo unspecified)
- EC50 [2]: 31 µM

SMILES: CC(=O)[C@H]1CC[C@H]2[C@@H]3CCC4=CC(=O)CC[C@@H]4[C@H]3CC[C@]12C
- Log K [1]: 6.82

SMILES: C[C@]12CC[C@@H]3c4ccc(O)cc4CC[C@H]3[C@@H]1CC[C@@H]2O
- Log K [1]: 5

SMILES: CC(C)CO [ISOBUTANOL]
- MES (Oryctolagus cuniculus): 6.44

SMILES: CC[N+](C)(C)CCCCCC[N+](C)(C)CCCN1C(=O)c2ccccc2C1=O
- EC50 [2]: 10 µM

SMILES: OCC(O)CO [GLYCERIN]
- MES (Oryctolagus cuniculus): 0.12

SMILES: CCCC(C)CC (stereo unspecified)
- MES (Oryctolagus cuniculus): 0.1

SMILES: C[N+](C)(CCCCCCO)CCCN1C(=O)c2ccccc2C1=O
- EC50 [2]: 24 µM

SMILES: CCCCO [BUTYL ALCOHOL]
- MES (Oryctolagus cuniculus): 5.47

SMILES: C[C@]12CCC(=O)C=C1CC[C@@H]1[C@@H]2CC[C@]2(C)C(=O)CC[C@@H]12
- Log K [1]: 5.76

SMILES: C[C@]12CC[C@H](O)CC1=CC[C@@H]1[C@@H]2CC[C@]2(C)C(=O)CC[C@@H]12
- Log K [1]: 5

SMILES: C[N+](C)(CCCCCC[N+](C)(C)CCCN1C(=O)c2cc3ccccc3cc2C1=O)CCCN1C(=O)c2ccccc2C1=O
- EC50 [2]: 0.148 µM

SMILES: CCOC(=O)C(C)(C)C
- MES (Oryctolagus cuniculus): 0.63

SMILES: C[C@]12CC[C@H]3[C@@H](CCC4=CC(=O)CC[C@@H]43)[C@@H]1CC[C@@H]2O
- Log K [1]: 6.14

SMILES: CC(O)CO (stereo unspecified) [PROPYLENE GLYCOL]
- MES (Oryctolagus cuniculus): 0.1

SMILES: C[C@]12CC[C@H]3[C@@H](CCC4=CC(=O)CC[C@@]43C)[C@@H]1CC[C@@H]2C(=O)CO
- Log K [1]: 7.65

SMILES: C=CCCC=C
- MES (Oryctolagus cuniculus): 0.55

SMILES: Cc1ccccc1 [TOLUENE]
- MES (Oryctolagus cuniculus): 0.96

SMILES: C[C@]12CC[C@H]3[C@@H](CCC4=CC(=O)CC[C@@]43C)[C@@H]1CC[C@@H]2O
- Log K [1]: 6.72

SMILES: C[C@]12CCC(=O)C=C1CC[C@@H]1[C@@H]2[C@@H](O)C[C@@]2(C)[C@H]1CC[C@]2(O)C(=O)CO
- Log K [1]: 7.88

SMILES: CCOCC(=O)O
- MES (Oryctolagus cuniculus): 2.03

SMILES: C[C@@H]1C[C@@]2(C)C(=CC1=O)CC[C@H]1[C@@H]3CC[C@](O)(C(=O)CO)[C@@]3(C)C[C@H](O)[C@@]12F
- Log K [1]: 5.8

SMILES: C[C@@H]1C(=O)N(CCC[N+](C)(C)CCCCCCC[N+](C)(C)CCCN2C(=O)[C@H](C)[C@@H](C)C2=O)C(=O)[C@H]1C
- EC50 [2]: 12.1 µM

SMILES: C[N+](C)(CCCCCCC[N+](C)(C)CCCN1C(=O)c2ccccc2C1=O)CCCN1C(=O)c2ccccc2C1=O
- EC50 [2]: 0.389 µM

SMILES: C[C@]12CC[C@H](O)C[C@@H]1CC[C@@H]1[C@@H]2CC[C@]2(C)[C@@H](O)CC[C@@H]12
- Log K [1]: 5

SMILES: CCCCCC[N+](C)(C)CCCN1C(=O)c2ccccc2C1=O
- EC50 [2]: 54 µM

SMILES: COC(C)=O [ACETIC ACID METHYL ESTER]
- MES (Oryctolagus cuniculus): 3.14

SMILES: CC1CCCC1 [METHYLCYCLOPENTANE]
- MES (Oryctolagus cuniculus): 0.41

SMILES: CCC(C)c1ccccc1 (stereo unspecified)
- MES (Oryctolagus cuniculus): 0.31

SMILES: C[C@]12C=CC(=O)C=C1CC[C@@H]1[C@@H]2[C@@H](O)C[C@@]2(C)[C@H]1CC[C@]2(O)C(=O)CO
- Log K [1]: 7.51

SMILES: C[N+](C)(CCCCCCC[N+](C)(C)CCCN1C(=O)[C@@H]2CCCC[C@H]2C1=O)CCCN1C(=O)[C@H]2CCCC[C@@H]2C1=O
- EC50 [2]: 0.8 µM

SMILES: CC(C)c1cccc(C(C)C)c1
- MES (Oryctolagus cuniculus): 0.38

SMILES: CCOC(=O)CCCCCC[N+](C)(C)CCCN1C(=O)c2ccccc2C1=O
- EC50 [2]: 111 µM

SMILES: CC(=O)[C@H]1[C@H](C)C[C@H]2[C@@H]3CCC4=CC(=O)CC[C@]4(C)[C@H]3CC[C@@]21C
- Log K [1]: 7.12

SMILES: C[C@]12CCC(=O)C=C1CC[C@@H]1[C@@H]2C(=O)C[C@@]2(C)[C@H]1CC[C@]2(O)C(=O)CO
- Log K [1]: 6.89

SMILES: OC1CCCCC1 [CYCLOHEXANOL]
- MES (Oryctolagus cuniculus): 8.29

SMILES: CC(=O)[C@H]1CC[C@H]2[C@@H]3CC=C4C[C@@H](O)CC[C@]4(C)[C@H]3CC[C@]12C
- Log K [1]: 5.25

SMILES: C[N+](C)(CCCCCC[N+](C)(C)CCCN1C(=O)c2ccccc2C1=O)CCCN1C(=O)CCC1=O
- EC50 [2]: 9.77 µM

SMILES: O=C1c2ccccc2C(=O)N1CCCN(CCCCCCN(CCCc1ccccc1)CCCN1C(=O)c2ccccc2C1=O)CCCc1ccccc1
- EC50 [2]: 0.991 µM

SMILES: CCCC(C)C
- MES (Oryctolagus cuniculus): 0.26

SMILES: O=C1c2ccccc2C(=O)N1CCCN(CCCCCCN(CCCN1C(=O)c2ccccc2C1=O)C1CCCCC1)C1CCCCC1
- EC50 [2]: 0.045 µM

SMILES: CCc1cccc(C)c1
- MES (Oryctolagus cuniculus): 0.32

SMILES: C[N+](C)(CCCCCC[N+](C)(C)CCCN1c2ccccc2C(=O)NC1c1ccccc1)CCCN1c2ccccc2C(=O)NC1c1ccccc1 (stereo unspecified)
- EC50 [2]: 0.741 µM

SMILES: Cc1ccc(C)cc1 [P-XYLENE]
- MES (Oryctolagus cuniculus): 1.1

SMILES: CCCCCCO [1-HEXANOL]
- MES (Oryctolagus cuniculus): 8.13

SMILES: C[N+](C)(CCCCCC[N+](C)(C)CCCN1C(=O)c2cccc3cccc(c23)C1=O)CCCN1C(=O)c2ccccc2C1=O
- EC50 [2]: 0.0631 µM

SMILES: CCC(C)(C)C(=O)O [DIMEBUTIC ACID]
- MES (Oryctolagus cuniculus): 5.59

SMILES: CC1CC(=O)N(CCC[N+](C)(C)CCCCCCC[N+](C)(C)CCCN2C(=O)CC(C)C2=O)C1=O (stereo unspecified)
- EC50 [2]: 32 µM

SMILES: C[N+](C)(CCCCCC[N+](C)(C)CCCN1C(=O)c2cccnc2C1=O)CCCN1C(=O)c2ccccc2C1=O
- EC50 [2]: 2.34 µM

SMILES: Nc1ccc(F)cc1
- MES (Oryctolagus cuniculus): 6.62

SMILES: CC(=O)OCC(=O)[C@@]1(O)CC[C@H]2[C@@H]3CCC4=CC(=O)CC[C@]4(C)[C@H]3[C@@H](O)C[C@@]21C
- Log K [1]: 7.55

SMILES: CC(=O)[C@@]1(O)CC[C@H]2[C@@H]3CC[C@@H]4C[C@H](O)CC[C@]4(C)[C@H]3CC[C@@]21C
- Log K [1]: 5

SMILES: C[N+](C)(CCCCCCC[N+](C)(C)CCCN1C(=O)CCC1=O)CCCN1C(=O)CCC1=O
- EC50 [2]: 151 µM

SMILES: CCC(C)=O [BUTANONE]
- MES (Oryctolagus cuniculus): 4.48

SMILES: C1=C\CCCCCC/1 [CYCLOOCTENE]
- MES (Oryctolagus cuniculus): 0.43

SMILES: CC(=O)[C@H]1CC[C@H]2[C@@H]3CCC4=CC(=O)CC[C@]4(C)[C@H]3C(=O)C[C@]12C
- Log K [1]: 6.78

SMILES: C=CCCCCCCC=C
- MES (Oryctolagus cuniculus): 0.37

SMILES: CC(=O)[C@H]1CC[C@H]2[C@@H]3CCC4=CC(=O)CC[C@]4(C)[C@H]3CC[C@]12C
- Log K [1]: 7.38
